US4975445A, “Substituted cyclohexenes as central nervous system agents” (priority 1989, dated 1990)
pIC50: −log10 of the molar value. Where two headings read alike, the source gives them in different places.

Legend:
[1] = target: [^3 H]-Spiroperidol binding (receptor); experiment: Inhibition of [3H]-spiroperidol binding (receptor assay, Grigoriadis and Seeman)
Protocol: (§1) The compounds of Formula I are valuable dopaminergic agents. […] Thus, the compounds of Formula I were tested for their ability to inhibit locomotor activity in mice according to the assay described by J. R. McLean, et al, Pharmacoloqy, Biochemistry and Behavior, Volume 8, pages 97-99 (1978); for their ability to inhibit [^3 H]-spiroperidol binding in a receptor assay described by D. Grigoriadis and P. Seeman, Journal of Neurochemistry, Volume 44, Pages 1925-1935 (1985); and for their ability to inhibit dopamine synthesis in rats according to the protocol described by J. R. Walters and R. H. Roth, Naunyn-Schmiedeberg's Archives of Pharmacology, Volume 296, pages 5-14 (1976). The above test methods are incorporated herein by reference. The data in the table show the dopaminergic activity of representative compounds of Formula I. Additionally, compounds of Formula I are ligands for the sigma opiate binding site. The data in the table show the inhibition of [^3 H]DTG ([…], a sigma ligand) binding by representative compounds of Formula I, according to the method of E. Weber, et al. Proceedings of the National Academy of Sciences, USA, Volume 83, Pages 8784-8788 (1986).

mice = experiment: Inhibition of locomotor activity in mice (McLean et al.); type: in vivo; conditions: Mus musculus, read-out: Inhibition of Locomotor Activity in Mice ED50
Protocol: as §1

[2] = tested on: Brain Striatal Dopamine Synthesis; experiment: Inhibition of brain striatal dopamine synthesis in rats (Walters and Roth); type: in vivo; conditions: Rattus norvegicus, IP, read-out: Effects on Brain Striatal Dopamine Synthesis in Rats, inhibition
Protocol: as §1

[3] = target: sigma opiate binding site; experiment: Inhibition of [3H]DTG (ditoluoylguanidine) binding (Weber et al.)
Protocol: as §1

| SMILES | pIC50 [1] | pIC50 [3] | ED50 (mice; mice, IP) [mg/kg] | inhibition at 10 mg/kg [2] [%] | ED50 (mice; ip) [mg/kg] |
| --- | --- | --- | --- | --- | --- |
| C1=C(c2cccnc2)CCC(N2CCN(c3ccccn3)CC2)C1 (racemic) [Example 1, (±)-1-(2-Pyridinyl)-4-[4-(3-pyridinyl)-3-cyclohexen-1-yl]piperazine] | 6.73 |  | 0.1 | 100 |  |
| C1=C(c2ccccn2)CCC(N2CCN(c3ccccn3)CC2)C1 (racemic) [Example 1a, (±)-1-(2-Pyridinyl)-4-[4-(2-pyridinyl)-3-cyclohexen-1-yl]-piperazine] | 5.93 |  | 0.9 | 75 |  |
| C1=C(c2ccccn2)CCC(CCN2CCN(c3ccccn3)CC2)C1 (racemic) [Example 1b, (±)-1-(2-Pyridinyl)-4-[2-[4-(2-pyridinyl)-3-cyclohexen-1-yl]ethyl]piperazine] | 6.89 | 7.41 | 0.4 |  |  |
| C1=C(c2cccs2)CCC(N2CCN(c3ccccn3)CC2)C1 (racemic) [Example 2, (±)-1-(2-Pyridinyl)-4-[4-(2-thienyl)-3-cyclohexen-1-yl]-piperazine] | 6.45 |  | 9.3 |  |  |
| C1=C(c2ccccc2)CCN(CCC2CC=C(c3cccs3)CC2)C1 (racemic) [Example 2g, (±)-1,2,3,6-Tetrahydro-4-phenyl-1-[2-[4-(2-thienyl)-3-cyclohexen-1-yl]ethyl]pyridine] | 7.49 | 8.70 |  |  | 3 |
| C1=C(c2ccccc2)CCN(C2CC=C(c3ccccn3)CC2)C1 (racemic) [Example 3, (±)-2-[4-(3,6-Dihydro-4-phenyl-1(2H)-pyridinyl)-1-cyclohexen-1-yl]pyridine] | 6.53 |  |  |  | 2 |

More lines, main results first:

| pIC50 [1] | pIC50 [3] | SMILES | ED50 (mice; mice, IP) [mg/kg] | inhibition at 10 mg/kg [2] [%] | ED50 (mice; ip) [mg/kg] |
| --- | --- | --- | --- | --- | --- |
| 6.22 |  | C1=C(c2ccccc2)CCC(N2CCN(c3ccccn3)CC2)C1 (racemic) [Example 2a, (±)-1-(4-Phenyl-3-cyclohexen-1-yl)-4-(2-pyridinyl)piperazine] | 1 |  |  |
| 5.61 |  | C1=C(c2cccs2)CCC(CN2CCN(c3ccccn3)CC2)C1 (racemic) [Example 2b, (±)-1-(2-Pyridinyl)-4-[[4-(2-thienyl)-3-cyclohexen-1-yl]methyl]-piperazine] | < 30 |  |  |
|  | 7.41 | C1=C(c2cccs2)CCC(CCN2CCN(c3ccccn3)CC2)C1 (racemic) [Example 2c, (±)-1-(2-Pyridinyl)-4-[2-[4-(2-thienyl)-3-cyclohexen-1-yl]ethyl]-piperazine] | 8.4 | 46 |  |
| 6.39 | 7.64 | C1=C(c2ccccc2)CCC(CCN2CCN(c3ccccn3)CC2)C1 (racemic) [Example 2d, (±)-1-[2-(4-Phenyl-3-cyclohexen-1-yl)ethyl]-4-(2-pyridinyl)piperazine] | 1.9 | 48 |  |
| 6.44 | 7.70 | Fc1ccc(C2=CCC(CCN3CCN(c4ccccn4)CC3)CC2)cc1 (racemic) [Example 2e, (±)-1-[2-[4-(4-Fluorophenyl)-3-cyclohexen-1-yl]ethyl]-4-(2-pyridinyl)piperazine] | 2.9 | 23 |  |
| 6.57 | 7.01 | C1=C(c2nccs2)CCC(CCN2CCN(c3ccccn3)CC2)C1 (racemic) [Example 2f, (±)-1-(2-Pyridinyl)-4-[2-[4-(2-thiazolyl)-3-cyclohexen1-yl]-ethyl]piperazine] | 0.8 | 77 |  |
